Read-outs that look alike come from different tables or passages of the source.
What was measured:
HeLa = assay: MTT antiproliferative assay, HeLa; assay type: cell-based, human; details: MTT, 72 h, cervical cancer cells, read-out: IC50 Values (μM) ± SEM HeLa
Procedure: (§1) The growth-inhibitory effects of the compounds were determined by MTT (3-(4,5-dimethylthiazol-2-yl)-2,5-diphenyltetrazolium bromide) assay on selected cell lines, including HeLa and SiHa (cervical cancers), MDA-MB-231 and MCF-7 (breast cancers), and A2780 ovarian cancer cells. All cell lines were purchased from the European Collection of Cell Cultures (Salisbury, UK) except SiHa, which was obtained from the American Tissue Culture Collection (Manassas, VA, USA). The cells were kept in minimum essential medium supplemented with 10% fetal bovine serum, 1% non-essential amino acids, and 1% penicillin-streptomycin-amphotericin-B at 37 °C in a humidified atmosphere containing 5% CO2. Media and supplements were obtained from Lonza Group Ltd., (Basel, Switzerland). Cancer cells were seeded onto 96-well plates (5000 cells/well), after an overnight incubation the test compounds were added in six concentrations (0.1, 0.3, 1.0, 3.0, 10.0, 30.0 µM) and incubated for 72 h under cell-culture condition. After the incubation, 20 μL of 5 mg/mL MTT solution was added to each well and incubated for a further 4 h. The medium was removed, and the precipitated formazan crystals were dissolved in DMSO for 30 min under shaking at 37 °C. The absorbance was measured at 545 nm with a microplate reader. Untreated cells were included as controls. Calculations were performed by means of the GraphPad Prism 5.01 software (GraphPad Software Inc., San Diego, CA, USA). At least two independent determinations were performed with 5 parallel wells for each condition.

SiHa = assay: MTT antiproliferative assay, SiHa; assay type: cell-based, human; details: MTT, 72 h, cervical cancer cells, read-out: IC50 Values (μM) ± SEM SiHa
Procedure: as §1

MCF-7 = assay: MTT antiproliferative assay, MCF-7; assay type: cell-based, human; details: MTT, 72 h, breast cancer cells, read-out: IC50 Values (μM) ± SEM MCF-7
Procedure: as §1

MDA-MB-231 = assay: MTT antiproliferative assay, MDA-MB-231; assay type: cell-based, human; details: MTT, 72 h, breast cancer cells, read-out: IC50 Values (μM) ± SEM MDA-MB-231
Procedure: as §1

A2780 = assay: MTT antiproliferative assay, A2780; assay type: cell-based, human; details: MTT, 72 h, ovarian cancer cells, read-out: IC50 Values (μM) ± SEM A2780
Procedure: as §1

K562 = assay: MTS cell proliferation assay, K562; assay type: cell-based, human; details: MTS, 3-day incubation, leukemia cells, read-out: IC50 Values (μM) ± SEM K562
Procedure: The human leukemic cell line K562 was grown in RPMI 1640 medium (Life Technology-Invitrogen by Thermo Fisher Scientific, Saint-Aubin, France) supplemented with 10% fetal calf serum (FCS), antibiotics (100 U/mL penicillin, 100 µg/mL streptomycin), and L-glutamine, (Eurobio, Les Ulis, France) at 37 °C, 5% CO2 in air. The MTS cell proliferation assay (Promega, Charbonnières-les-Bains, France) is a colorimetric assay system, which measures the transformation of a tetrazolium component (MTS) into formazan produced by the mitochondria of viable cells. Cells were washed twice in PBS (Phosphate Buffer Saline) and plated in quadruplicate into microtiter-plate wells in 100 μL culture media with or without our various compounds at increasing concentrations (0, 1, 5, 10, 20, and 50 μM) for 1, 2, and 3 days. After 3 h of incubation at 37 °C with 20 μL MTS/well, the plates were read using an ELISA microplate reader (Thermo, Electrocorporation, Waltham, MA, USA) at 490 nm. The amount of color produced was directly proportional to the number of viable cells. The results are expressed as the concentrations inhibiting cell growth by 50% after a 3-day incubation period. The 50% cytotoxic concentrations (CC50) were determined by linear regression analysis, expressed in μM ± SD (Microsoft Excel).

Fc-MYCT = assay: FRET-melting, Fc-MYCT; assay type: binding; details: ligand 2 μM, DNA 0.2 μM, K+ conditions, pH 7.2
Procedure: (§2) FRET-melting experiments were conducted on a Stratagene MX3005P (Thermo Fisher Scientific, Illkirch-Graffenstaden, France) real-time PCR equipment in 96-well plates on the DNA sequences reported in Table 4. Experiments were performed in 10 mM lithium cacodylate buffer (pH 7.2) and either 10 mM KCl and 90 mM LiCl (FK-RAST, FBCL-2T, F21T, and FdxT) or 1 mM KCl and 99 mM LiCl (Fc-MYCT) concentrations, depending on the Tm of the G4s alone. The DNA concentration was 0.2 µM. […] Data are presented as an average of three independent measurements, each conducted in duplicate conditions (λexc = 492 nm, λem = 516 nm, T interval = 25–95 °C, ramp: 25 °C for 5 min, then 1 °C/min, measurements every 1 °C, 8× magnification of the fluorescence signal).

FK-RAST = assay: FRET-melting, FK-RAST; assay type: binding; details: ligand 2 μM, DNA 0.2 μM, 10 mM KCl, 90 mM LiCl, pH 7.2
Procedure: as §2

FBCL-2T = assay: FRET-melting, FBCL-2T; assay type: binding; details: ligand 2 μM, DNA 0.2 μM, 10 mM KCl, 90 mM LiCl, pH 7.2
Procedure: as §2

[1] = tested on: human telomeric sequence F21T; assay: FRET-melting, F21T; assay type: binding; details: ligand 2 μM, DNA 0.2 μM, 10 mM KCl, 90 mM LiCl, pH 7.2
Procedure: as §2

FdxT = assay: FRET-melting, duplex control FdxT; assay type: binding; details: ligand 2 μM, DNA 0.2 μM, 10 mM KCl, 90 mM LiCl, pH 7.2, hairpin duplex
Procedure: as §2

Row | Molecule | IC50 (HeLa) [µM] | IC50 (SiHa) [µM] | IC50 (MCF-7) [µM] | IC50 (MDA-MB-231) [µM] | IC50 (A2780) [µM] | IC50 (K562) [µM] | ΔT1/2 (°C) Fc-MYCT (Fc-MYCT) [°C] | ΔT1/2 (°C) FK-RAST (FK-RAST) [°C] | ΔT1/2 (°C) FBCL-2T (FBCL-2T) [°C] | ΔT1/2 (°C) F21T [1] [°C] | ΔT1/2 (°C) FdxT (FdxT) [°C] | IC50 (HeLa; Homo sapiens, HeLa) [µM] | IC50 (SiHa; Homo sapiens, SiHa) [µM] | IC50 (MCF-7; Homo sapiens, MCF7, 72 h) [µM] | IC50 (MDA-MB-231; Homo sapiens, MDA-MB-231, 72 h) [µM] | IC50 (A2780; Homo sapiens, A2780) [µM] | IC50 (K562; Homo sapiens, K562, 72 h) [µM]
1 | 2,4-bis{4-[(4-(3-methylpiperazin-1-yl)propyl)aminomethyl]phenyl}-6-phenylquinazoline [Compound 12d] | 1.32 ± 0.02 | 1.28 ± 0.27 | 1.01 ± 0.3 | 1.44 ± 0.17 | 1.74 ± 0.11 | 17 ± 0.4 | 8.4 ± 0.9 | 15.5 ± 0.5 | 9.7 ± 0.06 | 15.8 ± 1.2 | 0.5 ± 0.3 |  |  |  |  |  | 
2 | CN(C)CCCCNCc1ccc(-c2nc(-c3ccc(CNCCCCN(C)C)cc3)c3cc(-c4ccccc4)ccc3n2)cc1 [Compound 12c, 2,4-bis{4-[(4-dimethylaminobutyl)aminomethyl]phenyl}-6-phenylquinazoline] |  |  |  |  |  |  | 17.7 ± 0.8 | 24.5 ± 0.7 | 16.4 ± 0.4 | 28.0 ± 0.4 | 3.8 ± 0.8 | 2.21 ± 0.86 | 0.76 ± 0.01 | 1.44 ± 0.03 | 1.07 ± 0.42 | 2.04 ± 0.54 | 7 ± 0.2
3 | CN(C)CCCCCNCc1ccc(-c2nc(-c3ccc(CNCCCCCN(C)C)cc3)c3ccc(-c4ccccc4)cc3n2)cc1 [Compound 12h, 2,4-bis{4-[(5-dimethylaminopentyl)aminomethyl]phenyl}-7-phenylquinazoline] |  |  |  |  |  |  | 18.7 ± 0.2 | 28.6 ± 2.1 | 18.2 ± 1.7 | 28.1 ± 2.3 | 2.7 ± 1.0 | 2.31 ± 0.76 | 0.75 ± 0.01 | 1.19 ± 0.27 | 1.1 ± 0.38 | 1.43 ± 0.07 | 13 ± 0.2
4 | CN(C)CCCNCc1ccc(-c2nc(-c3ccc(CNCCCN(C)C)cc3)c3cccc(-c4ccccc4)c3n2)cc1 [Compound 12k, 2,4-bis{4-[(3-dimethylaminopropyl)aminomethyl]phenyl}-8-phenylquinazoline] |  |  | 1.24 ± 0.14 |  |  |  | 9.9 ± 1.4 | 13.0 ± 0.4 | 9.5 ± 0.2 |  | 0.8 ± 0.1 | 1.19 ± 0.24 | 1.01 ± 0.27 | 1.12 to 1.24 | 1.36 ± 0.06 | 1.34 ± 0.14 | 7 ± 0.1
5 | CN(C)CCCCNCc1ccc(-c2nc(-c3ccc(CNCCCCN(C)C)cc3)c3cccc(-c4ccccc4)c3n2)cc1 [Compound 12l, 2,4-bis{4-[(4-dimethylaminobutyl)aminomethyl]phenyl}-8-phenylquinazoline] |  |  |  |  |  |  | 14.2 ± 1.1 | 18.7 ± 0.8 | 17.2 ± 1.2 | 24.9 ± 0.3 | 2.9 ± 0.2 | 1.39 ± 0.16 | 1.14 ± 0.51 | 1.45 ± 0.02 | 1.55 ± 0.12 | 2.08 ± 0.48 | 7 ± 0.2
6 | CC1CN(CCCNCc2ccc(-c3nc(-c4ccc(CNCCCN5CCNC(C)C5)cc4)c4cccc(-c5ccccc5)c4n3)cc2)CCN1 (stereo not drawn) [Compound 12m, 2,4-bis{4-[(4-(3-methylpiperazin-1-yl)propyl)aminomethyl]phenyl}-8-phenylquinazoline] | 1.17 ± 0.23 | 0.88 ± 0.14 | 1.22 ± 0.19 | 2 ± 0.45 | 2.1 ± 0.48 | 7 ± 0.2 | 14.6 ± 0.9 | 18.2 ± 0.6 | 15.5 ± 0.3 | 23.3 ± 0.7 | 2.2 ± 0.2 |  |  |  |  |  | 
7 | CN1CCN(CCCCNCc2ccc(-c3nc(-c4ccc(CNCCCCN5CCN(C)CC5)cc4)c4cccc(-c5ccccc5)c4n3)cc2)CC1 [Compound 12n, 2,4-bis{4-[(4-(4-methylpiperazin-1-yl)butyl)aminomethyl]phenyl}-8-phenylquinazoline] |  |  |  |  |  |  | 17.0 ± 2.0 | 18.0 ± 2.5 | 12.0 ± 2.0 | 20.7 ± 3.1 | 2.4 ± 0.7 | 3.51 ± 0.17 | 1.89 ± 0.74 | 4.17 ± 0.5 | 3.94 ± 0.54 | 7.1 ± 1.15 | 14 ± 0.3
8 | CN(C)CCCCNCc1ccc(-c2cc(-c3ccc(CNCCCCN(C)C)cc3)c3cc(-c4ccccc4)ccc3n2)cc1 [Compound 13b, 2,4-bis{4-[(4-dimethylaminobutyl)aminomethyl]phenyl}-6-phenylquinoline] |  |  |  |  |  |  | 13.8 ± 3.0 | 19.6 ± 3.5 | 11.1 ± 2.6 | 13.6 ± 2.9 | 1.5 ± 0.6 | 3.58 ± 0.18 | 1.76 ± 0.61 | 3.03 ± 0.64 | 3.68 ± 0.8 | 6.49 ± 1.76 | 13 ± 0.4
9 | CC1CN(CCCNCc2ccc(-c3cc(-c4ccc(CNCCCN5CCNC(C)C5)cc4)c4cc(-c5ccccc5)ccc4n3)cc2)CCN1 (stereo not drawn) [Compound 13c, 2,4-bis{4-[(4-(3-methylpiperazin-1-yl)propyl)aminomethyl]phenyl}-6-phenylquinoline] | 1.3 ± 0.06 | 1.45 ± 0.13 | 0.86 ± 0.38 | 1.33 ± 0.13 | 1.58 ± 0.1 | 34 ± 0.7 | 6.8 ± 1.4 | 14.5 ± 0.8 | 7.5 ± 0.5 | 11.3 ± 0.9 | 0.1 ± 0.2 |  |  |  |  |  | 

Source: publication PMC10819771 (Pharmaceuticals, 2023)
